Data published in PMC4738272 (Scientific Reports, 2016).
Several values for one entry are separate records, joined by “and”; a condition that tells them apart may be missing. Equal values may be shown once. Entries after “also recorded” stand apart in the source; their conditions may differ.

What was measured:
[1] = tested on: Neurons; design: method as in Literature; settings: general toxic effects reported in the literature; ref Literature; cited from earlier work
[2] = tested on: Muscle; design: method as in Literature; settings: general toxic effects reported in the literature; ref Literature; cited from earlier work
[3] = tested on: Cardiomyocytes; design: method as in Literature; settings: general toxic effects reported in the literature; ref Literature; cited from earlier work
[4] = tested on: HepG2/C3A; assay: Human Serum Albumin quantification (ELISA), liver fraction of 4-organ system; format: cell-based; settings: 4-organ co-culture under flow, 48 h drug treatment, vs control, DOX 5 μM, ATR 100 μM, VPA 2 mM, APAP 5 mM, AMAP 5 mM
Method: Human Serum Albumin (HSA) production from the liver fraction was tracked throughout the co-culture, by measuring the HSA concentration in the supernatant of the culture as it represents liver protein anabolism. Samples were collected from the exchanged medium (1.2 mL) and stored at −20 °C until analysis. One freeze-thaw cycle occurred before samples were analyzed following manufacturers’ instructions provided in the ELISA Starter Accessory Kit (Bethyl Laboratories Inc, Cat #: E101). Samples were diluted as necessary in sample conjugate/diluent buffer to ensure readings measured within the range of the standard curve. The standard curve was prepared by serial dilutions of human reference serum in sample conjugate/diluent buffer (0–1600 ng/ml).
Final HSA concentrations were calculated in an excel file by first removing the average OD reading measured for blanks from average sample and standard OD readings. Concentrations of standard dilutions were plotted against average OD values measured in XY scatter plots. A standard curve was created by adding an order of 2 polynomial trendline to XY scatter plots and selecting the option to display the equation of the trendline, as well as the R^2 value, on each scatter plot (for ease of analysis HSA sigmoidal curves were split into 3 standard curves with HSA concentration ranges of 0–200 ng/ml, 200–800 ng/ml and […]). Quadratic equations were rearranged to make X (sample HSA concentration) the unknown variant. Y values (OD values) and a/b/c constants generated from trendline equations were inputted into rearranged quadratic equations per assay. HSA concentrations calculated were corrected accordingly for any differences in culture final volumes, sample dilutions during assays and cells number.

[5] = tested on: iPSc differentiated Cardiomyocytes; assay: Cardiac beating frequency from video recordings; format: cell-based, human; settings: 4-organ co-culture under flow, 48 h drug treatment, day 7, vs control; for Cardiomyocyte beating rate (beat frequency), decrease: DOX 5 μM, AMAP 5 mM; for Cardiomyocyte beating rate (beat frequency), increase: ATR 100 μM, VPA 2 mM, APAP 5 mM
Method: Seven or fourteen days after the co-culture, cardiac beating frequency was quantified from video recordings of three different areas of each of the cMEA surfaces, where the cardiomyocytes culture where located. Surfaces were located in a 37 °C bath platform containing co-culture medium with 50 mM HEPES on the stage of a Zeiss Axioscope 2FS upright microscope. Beats were counted in a period of 10 s, and the average number of 3 values was obtained. Drug effect was plotted as percentage of change compared to the control conditions.

[6] = tested on: Human Skeletal Myofibers; assay: MTT viability of skeletal muscle module in 4-organ system; settings: 4-organ co-culture under flow, serum-free medium, 48 h drug treatment, day 7, vs control, DOX 5 μM, ATR 100 μM, VPA 2 mM, APAP 5 mM, AMAP 5 mM
Text: (§1) The four organ in vitro systems were assembled, on day 0, by placing the corresponding surfaces cell side up in a specific chamber of the housing (liver coverslip into chamber 1, cardiac coverslips and cantilevers into chambers 2 and 4, muscle coverslips into chamber 5, and neuron coverslips into chamber 3 and they were then topped with the serum-free co-culture medium (1X Neurobasal Medium, 1X B27, 1X AB/AM, 1X Glutamax (all from Life Technologies)) before locking the system. Right after assembling, the medium was completely replaced with 4 mL of the co-culture defined serum-free medium and the systems placed on a rocking platform inside an incubator. Platforms were checked every day by inspecting for expected cell morphology inside the system and by replacing medium (1.2 mL total volume) from the two reservoirs (30% of the total volume was replaced) with fresh medium. Drug incubation was initiated on day 5 of the co-culture by addition of the drug through the reservoir closer to the liver chamber (no. 1), allowing a first contact of the drug with the liver. 20 μL of the drug stock solution (or vehicle) to achieve a working concentration in 4 mL of total volume in the platform was utilized. On day 6, after 24 hours of drug incubation, 6 μL of the drug stock solution (or vehicle) was added to the fresh medium exchange volume (1.2 mL). After 48 hour of drug incubation, on day 7, systems were disassembled to test organ functionality that same day. For mono-culture conditions, surfaces remained in a 12-well plated with 1 mL of the co-culture defined serum-free medium maintained by daily replacement of half volume.
(§2) Seven days after the initiation of the co-culture, viability of each organ chamber, except for neurons, was evaluated through an MTT assay. […] Cell viability was measured at 570 nm in a Synergy HT plate reader and KC4 software. The results were expressed as the percentage of cell survival relative to the control (untreated or incubated with vehicle). The neuronal fraction viability was evaluated through morphological analysis throughout the co-culture experiment as the final coverslips were used for patch-clamp electrophysiology. Phase images (10X) where obtained every day of the co-culture. Neuronal viability was evaluated by cell morphology integrity and by cell count from day 1 to day 14.

[7] = tested on: neurons; assay: Neuronal viability by morphological analysis and cell count in 4-organ system; settings: 4-organ co-culture under flow, serum-free medium, 48 h drug treatment, day 7, vs control, DOX 5 μM, ATR 100 μM, VPA 2 mM, APAP 5 mM, AMAP 5 mM
Text: as §1, §2

[8] = tested on: iPSc differentiated Cardiomyocytes; assay: MTT viability of cardiac module in 4-organ system; settings: 4-organ co-culture under flow, serum-free medium, 48 h drug treatment, day 7, vs control, DOX 5 μM, ATR 100 μM, VPA 2 mM, APAP 5 mM, AMAP 5 mM
Text: as §1, §2

[9] = tested on: HepG2/C3A; assay: MTT viability of liver module in 4-organ system; format: cell-based, human; settings: 4-organ co-culture under flow, serum-free medium, 48 h drug treatment, day 7, vs control, DOX 5 μM, ATR 100 μM, VPA 2 mM, APAP 5 mM, AMAP 5 mM
Text: as §1, §2

[10] = tested on: HepG2/C3A; assay: Urea quantification, liver fraction of 4-organ system; format: cell-based, human; settings: 4-organ co-culture under flow, 48 h drug treatment, vs control
[11] = tested on: Liver; design: method as in Literature; settings: general toxic effects reported in the literature; ref Literature; cited from earlier work
[12] = tested on: neurons; assay: Neuron electrophysiology recording (patch clamp); format: cell-based, human; settings: 4-organ co-culture under flow, 48 h drug treatment, day 7, vs control, DOX 5 μM, ATR 100 μM, APAP 5 mM, AMAP 5 mM; for Neuronal electrophysiology, overall effect: VPA 2 mM
Text: Electrophysiological properties of neuron cultures where recorded on the last day of co-culture following a previously described method. Values of firing, repetitive firing, spontaneous firing, inward sodium current, outward potassium current, action potential peak voltage and the resting membrane potential, characterized the mature functionality of neurons in the in vitro system. Drug alterations of the neuronal electrophysiology are discussed in this manuscript.

[13] = tested on: Human Skeletal Myofibers; assay: Myotube stimulated contraction (binary: contracting or not); format: cell-based; settings: 4-organ co-culture under flow, 48 h drug treatment, day 7, broad-field electrical stimulation, DOX 5 μM, ATR 100 μM, VPA 2 mM, APAP 5 mM, AMAP 5 mM
Method: Myotube contraction in coverslips was evaluated after the co-culture was finalized. Individual surfaces were evaluated as previously reported in the group. Drugs effects were quantify in a binary code mode, cells were or were not contracting.

[14] = therapeutic dosages; cited from earlier work
[15] = cited from earlier work

CC(=O)Nc1cccc(O)c1 [N-Acetyl-m-aminophenol]
Drug effects on cell functionality, Neurons, Literature [1]: Toxicity not reported
Drug effects on cell viability, Neurons, Literature [1]: Toxicity not reported
Drug effects on cell functionality, Muscle, Literature [2]: Toxicity not reported
Drug effects on cell viability, Muscle, Literature [2]: Toxicity not reported
Drug effects on cell functionality, Cardiomyocytes, Literature [3]: Toxicity not reported
Drug effects on cell viability, Cardiomyocytes, Literature [3]: Toxicity not reported
HSA (albumin) production, increase [4]: 23 ± 4%
Cardiomyocyte beating rate (beat frequency), decrease [5]: 25 ± 4% decrease in beating rate
Cardiomyocyte beating rate (beat frequency), decrease ([5]; listed as AMAP): 25 ± 4% and 30%
Skeletal muscle viability, loss [6]: Toxicity not observed
Skeletal muscle viability, loss ([6]; listed as AMAP): not affected
Neuronal cell viability, loss (cell loss by morphology/cell count) [7]: Toxicity not observed, some increase in cell numbers but not significant
Neuronal cell viability, loss (cell loss by morphology/cell count) ([7]; listed as AMAP): No significant effects; also recorded: some increase in cell numbers; also recorded: no change in viability
Cardiomyocyte viability, loss [8]: 28 ± 6% loss
Cardiomyocyte viability, loss ([8]; listed as AMAP): 28 ± 6% and 30%
Liver (hepatocyte) cell viability, loss [9]: Toxicity not observed
Liver (hepatocyte) cell viability, loss ([9]; listed as AMAP): No significant effects
Urea production, increase ([10]; DOX 5 μM, ATR 100 μM, APAP 5 mM, AMAP 5 mM): 138 ± 19%
Drug effects on cell functionality, Liver, Literature [11]: Toxicity not reported
Drug effects on cell viability, Liver, Literature [11]: Toxicity not reported
Neuronal repetitive and spontaneous firing ability [12]: conserved
Neuronal electrophysiology, overall effect [12]: Normal electrophysiology
Neuronal electrophysiology, overall effect ([12]; listed as AMAP): no significant changes compared to the control
Skeletal muscle loss of contractile ability (share of cultures in which contraction ceased) [13]: No loss in contractile ability
Skeletal muscle loss of contractile ability (share of cultures in which contraction ceased) ([13]; listed as AMAP): not affected

CCCC(CCC)C(=O)O [Valproic Acid, Valproic acid]
Drug effects on cell functionality, Neurons, Literature [1]: Toxicity not reported
Drug effects on cell viability, Neurons, Literature [1]: Toxicity not reported
Drug effects on cell functionality, Muscle, Literature [2]: Toxicity not reported
Drug effects on cell viability, Muscle, Literature [2]: Toxicity not reported
Drug effects on cell functionality, Cardiomyocytes, Literature [3]: Cardio-protective effect
Drug effects on cell viability, Cardiomyocytes, Literature [3]: Cardio-protective effect
Concentration detected in patient plasma [14]: 300 to 700 µM
HSA (albumin) production, increase [4]: not affected
HSA (albumin) production, increase ([4]; listed as VPA): no changes
Cardiomyocyte beating rate (beat frequency), increase [5]: 38 ± 18% increase in beating frequency
Cardiomyocyte beating rate (beat frequency), increase ([5]; listed as VPA): 38 ± 18%
Concentration known to be cytotoxic in vitro [15]: around 2 mM
Urea production, decrease ([10]; VPA 2 mM): 13 ± 2%
Neuronal electrophysiology, overall effect [12]: Normal electrophysiology
Neuronal electrophysiology, overall effect ([12]; listed as VPA): no changes compared to the control; also recorded: maintained the electrophysiological parameters
